Experimental findings from US20230322745A1, “FUSED TRICYCLIC DERIVATIVE AND PHARMACEUTICAL APPLICATION THEREOF” (CHIA TAI TIANQING PHARMACEUTICAL GROUP CO., LTD., priority 2020, published 2023) are described below.

One data set addresses M2 receptor (Homo sapiens (Human), UniProt P08172). The data set is described as follows: M2 receptor affinity test (3H-NMS competition). It counts as binding. As for the experimental part:
M2 receptor is a G protein-coupled receptor. In this experiment, the activity of test compounds against the M2 receptor in vitro was assayed by the competition of radioisotope labeled NMS and non-isotope labeled test compounds for an M2 binding site.
(§1) The M2 receptor membrane protein was prepared at 100 μg/mL by Biology Department of WuXi AppTec, and compounds were serially diluted in a 2.5-fold gradient in DMSO to obtain 10 concentrations. Radioisotope 3H-NMS was prepared at 0.2 nM in an assay buffer (10 mM HEPES, 1 mM MgCl2, pH 7.40). In formal testing, the experimental system comprising 1 μL of the test compound, 100 μL of M2 receptor membrane protein and 100 μL of radioisotope was shaken in a shaker at 300 RPM for 2 h at room temperature. A GF/C plate (Perkin Elmer, Cat No. 6055690) was prefoamed with 0.3% PEI, and the membrane proteins in the reaction solution were collected by filtration onto the GF/C plate. The signal values were read by a Perkin Elmer Microbeta2 instrument and the inhibition rate for each concentration point was shown as a percentage.

The target of data set [1] is β1 receptor (cells expressing human ADRB1 gene) (Homo sapiens (Human), UniProt P08588). The data set can be described thus: Agonistic effect on β1 receptor by HTRF cAMP method. The format is cell-based. As for the experimental part:
β1 receptor is a G protein-coupled receptor, which is mainly coupled with Gs protein, and can activate adenylate cyclase activity through the Gs protein after being activated by binding to the ligand, thereby increasing the level of intracellular cAMP. In this experiment, the agonistic activity of the compounds against the β1 receptor in vitro was assayed by the cAMP kit.
(§2) β1 cells (expressing human ADRB1 gene) from ICE Bioscience Inc. were grown under standard conditions. The cells were collected and diluted with 1× Stimulation Buffer, and 9 μL of the cell dilution was added to a white low-volume 384-well plate with 4000 cells seeded in each well. Compounds were serially diluted in DMSO in a 5-fold gradient to obtain 10 concentrations. Before testing, compounds that had been serially diluted in DMSO were subjected to 100-fold dilution with 1× Stimulation Buffer to obtain compound working solutions. The concentration of the vehicle DMSO was 0.1%. Eu-cAMP and ULight™-anti-cAMP were diluted to the working concentration with Detection buffer. 5 μL of Eu-cAMP diluent and 5 μL of ULight™-anti-cAMP diluent were sequentially added into corresponding experiment wells. After 1 h of incubation at room temperature, readings at 665 nm and 620 nm were measured under the excitation wavelength of 330 nm using a Biotek microplate reader. The activity of the compounds was obtained by plotting through Ratio (665/620) against the concentration of the compounds, fitting the curve by a nonlinear regression method using GraphPad Prism 7 software and calculating EC50.
On the technique in general: Time-resolved FRET reads energy transfer from a long-lived donor to a nearby acceptor.

The target of another data set is M3 receptor (Homo sapiens (Human), UniProt P20309). The data set can be described thus: M3 receptor affinity test (3H-NMS competition). It counts as binding. As to conditions: read-out: IC50, activity against the M3 receptor in vitro. As for the experimental part:
M3 receptor is a G protein-coupled receptor. In this experiment, the activity of test compounds against the M3 receptor in vitro was assayed by the competition of radioisotope labeled NMS and non-isotope labeled test compounds for an M3 binding site.
as §1, with “The experiment was performed by a radioisotope affinity assay. The M3” for “The M2”, “at 10” for “at 100”, “1” for “1 μL”, “of M3” for “of M2”

A short description of data set [2]: Pharmacokinetic evaluation in SD rats. The conditions noted are these: male, rat, plasma. It counts as in vivo. How it is done: To test pharmacokinetics of test compounds in SD rats
SD rats (male, 200-250 g, 7-9 weeks old, Beijing Vital River Laboratory Animal Technology Co., Ltd.)
A formulation containing 10% aqueous HPβCD solution as a vehicle was administered by intravenous injection (2 mpk), and a formulation containing 10% aqueous HPβCD solution as a vehicle was administered by intra-tracheal administration (5 mpk) with a nebulizer needle. Before the animal experiment, all animals were fed normally; and all animals were given free access to water. Blood collection time points were as follows: intravenous administration group: 0.083 h, 0.25 h, 0.5 h, 1 h, 2 h, 4 h, 8 h, and 24 h; nebulizer needle administration group: 0.083 h, 0.25 h, 0.5 h, 1 h, 2 h, 4 h, 8 h, and 24 h.
Whole blood samples (0.25 mL) were collected via the jugular vein (or other suitable collection site) at prescribed time points, and all blood samples were added to labeled plastic centrifuge tubes containing a K2-EDTA anticoagulant. After blood collection, plasma was separated by centrifugation and placed in dry ice rapidly, and the samples were stored at low temperature. All samples were analyzed by LC-MS/MS with a limit of detection of 4 nM. The mean concentration of plasma was processed using a non-compartmental model of the pharmacokinetic software WinNonlin™ Version 6.3 (Pharsight, Mountain View, CA), and pharmacokinetic parameters were calculated by a linear log-trapezoidal method.

Data set [3] concerns the target β2 receptor (cells expressing human ADRB2 gene) (Homo sapiens (Human), UniProt P07550). The data set is described as follows: Agonistic effect on β2 receptor by HTRF cAMP method. The format is cell-based. The conditions noted are these: HTRF cAMP, 1 h incubation at room temperature; read-out: EC50, agonistic activity against the β2 receptor in vitro. How it is done:
β2 receptor is a G protein-coupled receptor, which is mainly coupled with Gs protein, and can activate adenylate cyclase activity through the Gs protein after being activated by binding to the ligand, thereby increasing the level of intracellular cAMP. In this experiment, the agonistic activity of the compounds against the β2 receptor in vitro was assayed by the cAMP kit.
as §2, with “β2” for “β1”, “ADRB2” for “ADRB1”, “1000” for “4000”

Where a name gives a salt, the structure may show the parent alone. Read-outs that look alike come from different tables or passages of the source.

Sequence of β2 receptor (cells expressing human ADRB2 gene) (P07550 whole entry): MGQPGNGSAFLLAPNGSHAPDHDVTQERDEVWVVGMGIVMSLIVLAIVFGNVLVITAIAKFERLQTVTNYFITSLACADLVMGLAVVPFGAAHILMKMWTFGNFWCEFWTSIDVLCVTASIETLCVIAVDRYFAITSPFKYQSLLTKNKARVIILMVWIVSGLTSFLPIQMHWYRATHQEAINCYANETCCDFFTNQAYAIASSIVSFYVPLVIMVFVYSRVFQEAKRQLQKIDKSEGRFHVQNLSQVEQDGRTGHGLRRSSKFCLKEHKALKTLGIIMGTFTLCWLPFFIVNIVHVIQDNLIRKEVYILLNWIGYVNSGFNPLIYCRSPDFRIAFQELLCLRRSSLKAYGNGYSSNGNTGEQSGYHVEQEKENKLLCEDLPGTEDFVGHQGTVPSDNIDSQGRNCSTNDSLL
Sequence of M2 receptor (P08172 whole entry): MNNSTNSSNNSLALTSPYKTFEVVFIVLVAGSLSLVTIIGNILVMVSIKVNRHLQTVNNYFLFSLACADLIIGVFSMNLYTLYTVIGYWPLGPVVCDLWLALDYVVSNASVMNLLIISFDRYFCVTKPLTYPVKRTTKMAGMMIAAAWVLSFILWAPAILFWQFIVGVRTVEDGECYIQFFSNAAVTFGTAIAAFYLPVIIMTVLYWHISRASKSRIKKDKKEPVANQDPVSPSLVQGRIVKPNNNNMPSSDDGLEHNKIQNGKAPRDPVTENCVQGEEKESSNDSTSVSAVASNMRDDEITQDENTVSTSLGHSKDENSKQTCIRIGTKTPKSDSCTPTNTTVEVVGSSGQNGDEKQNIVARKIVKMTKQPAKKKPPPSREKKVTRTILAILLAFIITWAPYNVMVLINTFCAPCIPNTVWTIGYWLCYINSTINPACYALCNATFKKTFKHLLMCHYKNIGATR
Sequence of M3 receptor (P20309 whole entry): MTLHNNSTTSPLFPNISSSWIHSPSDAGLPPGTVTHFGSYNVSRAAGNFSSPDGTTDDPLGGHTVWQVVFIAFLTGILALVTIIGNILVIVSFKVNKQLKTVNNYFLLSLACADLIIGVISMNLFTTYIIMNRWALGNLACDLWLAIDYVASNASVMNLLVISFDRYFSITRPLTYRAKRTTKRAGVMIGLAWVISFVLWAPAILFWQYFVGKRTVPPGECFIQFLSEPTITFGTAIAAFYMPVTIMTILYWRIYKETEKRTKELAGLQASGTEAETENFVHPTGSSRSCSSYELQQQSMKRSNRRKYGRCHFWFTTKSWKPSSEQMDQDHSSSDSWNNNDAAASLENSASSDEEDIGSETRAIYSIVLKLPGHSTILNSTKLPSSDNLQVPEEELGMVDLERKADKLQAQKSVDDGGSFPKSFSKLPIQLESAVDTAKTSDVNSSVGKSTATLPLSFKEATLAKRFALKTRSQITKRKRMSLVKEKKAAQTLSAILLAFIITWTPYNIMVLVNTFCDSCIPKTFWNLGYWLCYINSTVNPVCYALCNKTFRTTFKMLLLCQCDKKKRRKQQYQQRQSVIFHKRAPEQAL
Sequence of β1 receptor (cells expressing human ADRB1 gene) (P08588 whole entry): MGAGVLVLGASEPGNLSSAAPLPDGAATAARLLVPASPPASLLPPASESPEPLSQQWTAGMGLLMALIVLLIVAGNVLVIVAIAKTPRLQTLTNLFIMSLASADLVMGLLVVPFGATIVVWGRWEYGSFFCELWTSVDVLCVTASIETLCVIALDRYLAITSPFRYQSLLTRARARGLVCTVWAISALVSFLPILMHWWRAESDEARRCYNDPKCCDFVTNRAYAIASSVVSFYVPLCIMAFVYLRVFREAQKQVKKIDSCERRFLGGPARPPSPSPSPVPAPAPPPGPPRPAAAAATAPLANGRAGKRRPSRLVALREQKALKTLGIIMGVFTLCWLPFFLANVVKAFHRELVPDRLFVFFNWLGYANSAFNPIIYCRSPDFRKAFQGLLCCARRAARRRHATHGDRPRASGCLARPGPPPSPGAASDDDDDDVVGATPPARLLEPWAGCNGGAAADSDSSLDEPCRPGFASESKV

For orientation: IC50 means the concentration at which inhibition is half-maximal. The term EC50 denotes the concentration giving half of the maximal effect. Turning to `CN(CCCn1nnc2cc(CNC[C@H](O)c3ccc(O)c4[nH]c(=O)ccc34)c3c(c21)CCC3)[C@H]1CC[C@H](OC(=O)C(O)(c2cccs2)c2cccs2)CC1` [Trifluoroacetate salt of compound 1], the half-inhibitory concentration (IC50) on M2 receptor came to 0.062 nM; on M3 receptor, 0.384 nM. The EC50 in data set [1] amounted to 84.5 nM; in data set [3], 3.47 nM. Moreover, the clearance in data set [2] (2 mg/kg, intravenous injection 2 mpk, 10% aqueous HPβCD, read-out: Clearance rate for administration by intravenous injection) amounted to 62.8 mL/min/kg. Also, the AUC in data set [2] (2 mg/kg, intravenous injection 2 mpk, 10% aqueous HPβCD, read-out: Concentration integration AUC for administration by intravenous injection) is 0.681 µM·h; in data set [2] (inhaled or intranasal, 5 mg/kg, intra-tracheal 5 mpk, 10% aqueous HPβCD, read-out: Concentration integration AUC for intra-tracheal administration with a nebulizer needle) it was 2.61 µM·h. Moreover, in data set [2] (inhaled or intranasal, 5 mg/kg, intra-tracheal 5 mpk vs intravenous 2 mpk, read-out: Bioavailability F for intra-tracheal administration with a nebulizer needle), the bioavailability stood at 153%. For the same compound, in data set [2] (inhaled or intranasal, 5 mg/kg, intra-tracheal 5 mpk, 10% aqueous HPβCD, read-out: Half life T1/2 for intra-tracheal administration with a nebulizer needle (converted)), the half-life is 82.8 min.
